In data set [1] the test system is LSMC (leiomyoma smooth muscle cells) spheroids. Briefly: Cell proliferation in LSMC spheroids, CellTiter-Glo 3D Cell Viability Assay. It is filed as cell-based, human. As for the experimental part: (§1) Isolated MSMC and LSMC were plated in 6-well (1×10^5 cells/well) or 96-well (5×10^3 cells/well) plates which were coated with 0.5% agarose gel and incubated 48 hours for spheroids formation.
(§2) The concentrations of inhibitors used was based on earlier studies and the cell proliferation was determined using the CellTiter-Glo 3D Cell Viability Assay (Promega, Madison, WI) according to the manufacturer's protocol. The assay was performed in six replicates per condition and repeated four times using cells isolated from four different patients.
(In ATP-based viability assays light output follows the ATP content of the culture.)

Data set [2] deals with leiomyoma explants. Put plainly: CYP1B1 expression in leiomyoma explants (AhR signaling marker). The following applies: fresh leiomyoma explants, 48 hours; kynurenine 100 μM, tryptophan different doses (mM), 680C91 50 μM. The data set is classed as cell-based, human.
Data set [3] relates to leiomyoma explants. Put plainly: COL1A1 and COL3A1 in culture-conditioned media of leiomyoma explants. The data set is classed as cell-based, human. Conditions: fresh leiomyoma explants, different doses, 48 hours, N=2. As for the experimental part: FIG. 5A-F. (A) Representative images of COL1A1 and COL3A1 in culture-conditioned media of leiomyoma explants after treatment with different doses of TDO2 inhibitor, 680C91 for 48 hours (N=2). An equal volume of conditioned media was used, and a Ponceau S-stained protein band on the nitrocellulose membrane was used as a loading control. (B) The effect of DMSO (control) and E2+P4 (10^−8M each) after 48 hours of culture on the expression of IDO1 and TDO2 in LSMC spheroids (N=2). (C) Representative western blot analysis of TDO2 following transfection of LSMC spheroids with anti-miR-200c oligonucleotides for 96 hrs. […] (E-F) QRT-PCR analysis of TDO2 (E), miR-29c and miR-200c (F) in LSMC spheroids after transfection of siRNA negative control (siNC) or TDO2 siRNA oligonucleotides (siTDO2) for 96 hours (N=3). The results are presented as mean±SEM with P values (*:p<0.05) indicated by corresponding lines.
Using fresh leiomyoma explants, we confirmed that the expression of COL1A1 and COL3A1 was decreased in culture-conditioned media following treatment with different doses of TDO2 inhibitor, 680C91 (FIG. 5A).

Data set [4] has as its system LSMC spheroids. Put plainly: Immunoblotting of ECM and inflammation proteins in LSMC spheroids after inhibitor treatment. The data set is classed as cell-based, human. On the procedure:
Total protein isolated from paired tissue samples and MSMC and LSMC spheroids following treatment conditions was subjected to immunoblotting. Briefly, samples were suspended in RIPA buffer containing 1 mM EDTA and EGTA (Boston BioProducts, Ashland, MA) supplemented with 1 mM PMSF and a complete protease inhibitor mixture (Roche Diagnostics, Indianapolis, IN), sonicated, and centrifuged at 4° C. for 10 min at 14,000 rpm. The concentration of protein was determined using the BCA™ Protein Assay Kit (Thermo Scientific Pierce, Rockford, IL). Equal aliquots (thirty micrograms) of total protein for each sample was denatured with SDS-PAGE sample buffer and separated by electrophoresis on a SDS polyacrylamide gel. After transferring the samples to a nitrocellulose membrane, the membrane was blocked with TBS-Tween+5% milk and probed with the following primary antibodies: IDO1 (Cell Signaling Technology, Danvers, MA), TDO2, COL3A1 (Proteintech Group, Inc, Chicago, Illinois) and COL1A1 (Fitzgerald Industries Intl, Acton, MA). The membranes were washed with TBS containing 0.1% Tween-20 wash buffer after each antibody incubation cycle. SuperSignal West Pico Chemiluminescent Substrate™ (Thermo Scientific Pierce) was used for detection, and photographic emulsion was used to identify the protein bands, which were subsequently quantified by densitometry. The membranes were also stripped and probed with glyceraldehyde 3-phosphate dehydrogenase (GAPDH) antibody (Santa Cruz Biotechnology, Santa Cruz, CA) serving as the loading control. The densities of the specific protein bands were determined using image J program (imagej.nih.gov/ij/), normalized to GAPDH or a band obtained from staining the membrane with Ponceau S. Results were expressed as means±SEM as a ratio relative to the control group designated as 1.
as §1
(In general: A western blot detects proteins with antibodies after separation by electrophoresis.)

Data set [5] concerns leiomyoma explants. Put plainly: In vivo experiment: leiomyoma explants implanted subcutaneously in ovariectomized CB-17 scid/beige mice. Conditions: 10 mg/Kg daily, i.p., 8 weeks. As for the experimental part: FIG. 7A-E. (A) Representative of the gross appearance of leiomyoma specimens (arrow) implanted subcutaneously in CB-17 SCID/Beige female mice following 8 weeks treatment of vehicle (left) or TDO2 inhibitor (right; 680C91; 10 mg/Kg daily via IP). (B) The relative explants weight between vehicle and 680C91 treated group after 8 weeks treatment (n=6). The ratio of plasma kynurenine vs tryptophan levels was shown in (C). (D) QRT-PCR analysis of COL1A1, FN1, DNMT1 and CCND1 expression in explants (n=6) implanted subcutaneously after 8 weeks treatment of vehicle or TDO2 inhibitor. (E) Paraformaldehyde-fixed paraffin-embedded xenograft explants of vehicle (a) or TDO2 inhibitor (b) stained with Masson's Trichrome reagent. […] The results are presented as mean±SEM with P values (*:p<0.05) indicated by corresponding lines.
We also performed the in vivo experiment using freshly collected leiomyoma explants implanted subcutaneously in the flank of ovariectomized CB-17 scid/beige female mice (N=6), and treated with vehicle or TDO2 inhibitor (680C91; 10 mg/Kg daily, i.p.) for 8 weeks (FIG. 7A). After sacrifice, the explants weight was determined and the collected plasma was analyzed for levels of tryptophan, kynurenine and blood chemistry panel (Abaxis).

For data set [6], the system named is MSMC (myometrial smooth muscle cells) spheroids. Put plainly: Cell proliferation in MSMC spheroids, CellTiter-Glo 3D Cell Viability Assay. It is filed as cell-based, human. As for the experimental part:
as §1, §2

In data set [7] the test system is leiomyoma explants. Briefly: Preliminary experiment: leiomyoma explants implanted subcutaneously in ovariectomized CB-17 scid/beige mice. It is filed as in vivo. Conditions: 8 mg/Kg daily via IP, 8 weeks. As for the experimental part: This example also performed a preliminary experiment using freshly collected leiomyoma explants implanted subcutaneously on the flank of ovariectomized CB-17 scid/beige female mice (N=2), and treated with vehicle or TDO2 inhibitor (680C91; 8 mg/Kg daily via IP) for 8 weeks. After sacrifice, plasma was collected and analyzed for blood chemistry panel (Abaxis).

Data set [8] concerns LSMC spheroids. Put plainly: Kynurenine treatment of LSMC spheroids, expression of AhR, IDO1, TDO2 and COL1A1. It is filed as cell-based, human. Conditions: 100 μM, 72 hours, N=2. On the procedure:
FIG. 6A-D. (A) The relative (mean±SEM) expression of CYP1B1 in paired (N=43) myometrium (Myo) and leiomyoma (Lyo). (B) Representative images show the levels of AhR and ARNT in fresh subfractionated cytoplasmic (Cyto) and nuclear (Nu) phase from myometrium (Myo) and paired leiomyoma (Lyo) with Calpain 1 and Lamin B1 served as markers for the respective subcellular fractions (N=3). (C) Representative images of CYP1B1 in leiomyoma explants after treatment with kynurenine (100 μM), different doses of tryptophan (mM) and TDO2 inhibitor (680C91, 50 μM) for 48 hours with a Ponceau S-stained protein band on the nitrocellulose membrane used as a loading control (N=2). (D) The effect of kynurenine (KYN, 100 μM) treatment for 72 hours on the expression of AhR, IDO1, TDO2 and COL1A1 in LSMC spheroids (N=2). The results are presented as mean±SEM with P values (*:p<0.05) indicated by corresponding lines.
Using fresh leiomyoma explants we confirmed that the expression of CYP1B1 was increased by the treatment of kynurenine (Kyn) and tryptophan, while decreased following TDO2 inhibitor treatment (FIG. 6C).

Setting [9] is: Example 3, various concentrations, 48 hours, n=4.
The mark [10] stands for this setting: Example 2, different doses, 48 h.
Setting [11] is: Example 3, 48 hours, different concentrations.

Entries after “also recorded” stand apart in the source; their conditions may differ.

`Fc1ccc2c(/C=C/c3cccnc3)c[nH]c2c1` [Compound 680C91, 6-Fluoro-3-[(1E)-2-(3-pyridinyl)ethenyl]-1H-indole]: the cell proliferation entry in data set [1] (Example 2) was “significantly suppressed”. Besides, the spheroids cell proliferation entry in data set [1] (setting [9]) is given as “significantly inhibited; also recorded: significantly repressed”. In addition, in the data set on leiomyoma explants [2], the “expression of CYP1B1” value is given as “decreased”. In addition, in the data set on leiomyoma explants [3], the “expression of COL1A1 in culture-conditioned media” value was “decreased” and the “expression of COL3A1 in culture-conditioned media” value is recorded as “decreased”. Moreover, in the data set with LSMC spheroids [4] (setting [10]), the “protein expression of COL3A1” value is “down-regulated dose dependently”, the “protein expression of IKBKB” value is recorded as “down-regulated dose dependently” and the “protein expression of fibronectin” value is “down-regulated dose dependently”. For the same molecule, in the data set with LSMC spheroids [4] (setting [11]), the “expression of COL1A1” value is reported as “significantly reduced; also recorded: significantly repressed” and the “expression of COL3A1” value is given as “significantly reduced; also recorded: significantly repressed”. In the data set with leiomyoma explants [5], the “effects on body weight” value was “no effects” and the “effects on food consumption” value is “no effects”. The explants weight result in the data set with leiomyoma explants [5] (N=6) is reported as “lower weight”. In the data set on leiomyoma explants [5] (explants, QRT-PCR), the “expression of CCND1” value is given as “down-regulated”, the “expression of COL1A1” value is “down-regulated”, the “expression of DNMT1” value was “down-regulated” and the “expression of FN1” value is listed as “down-regulated”. Further, in the data set on leiomyoma explants [5] (plasma), the “adverse effects on blood chemistry including liver and renal panels” value is listed as “no adverse effects”; the ratio of kynurenine/tryptophan result is reported as “decreased”. Further, the “deposition of collagens, keratin and cytoplasm, Masson's Trichrome staining” value in the data set with leiomyoma explants [5] (xenograft explants) is recorded as “less deposition”. Moreover, in data set [6] (Example 2), the cell proliferation entry was “significantly suppressed”. Moreover, the spheroids cell proliferation entry in data set [6] (setting [9]) was “significantly repressed”. Besides, in the data set with leiomyoma explants [7], the TDO2 expression entry is “down-regulated”, the “effects on body weight” value was “no effects”, the “effects on food consumption” value is given as “no effects” and the “expression of COL1A1” value was “down-regulated”. In the data set with leiomyoma explants [7], the “expression of MyD88” value was “down-regulated” and the “expression of TGF-β3” value was “down-regulated”. Besides, the tumor size entry in the data set on leiomyoma explants [7] (N=2) is “reduced”. Besides, the “adverse effects on blood chemistry including liver and renal panels” value with leiomyoma explants [7] (plasma) was “no adverse effects”.

Regarding `Nc1ccccc1C(=O)CC(N)C(=O)O` (stereo not drawn) [kynurenine], the “expression of CYP1B1” value with leiomyoma explants [2] is reported as “increased”. Further, in the data set with LSMC spheroids [8], the “expression of AhR” value is “increase”, the “expression of COL1A1” value is “increase”, the “expression of IDO1” value is listed as “increase” and the “expression of TDO2” value was “increase”.

Consider `N[C@@H](Cc1c[nH]c2ccccc12)C(=O)O` [tryptophan], for which the “expression of CYP1B1” value in the data set on leiomyoma explants [2] was “increased”.
